US9670204B2, “Compounds and pharmaceutical compositions thereof for the treatment of inflammatory disorders” (Galapagos NV, priority 2013, dated 2017)

Each compound was assayed against hENPP2 (UniProtKB/SwissProt Q13822) (Homo sapiens (Human), UniProt Q13822) (assay: hENPP2 biochemical assay, LPC as substrate). Conditions: LPC (palmitoyl 16:0) as substrate.
Protocol: The principle of the assay consists in quantifying the released choline with an enzymatic method using choline oxidase and peroxidase. Choline oxydation by choline oxydase releases betaine and peroxide. The latter is quantified in presence of HRP that converts the peroxide detection agent TOOS and 4-aminoantipyrine into quinoneimine dye. The appearance of quinoneimine dye is measured spectrophotometrically at 555 nm and is proportional to the amount of choline released by ENPP2. Inhibition of ENPP2 will result in a decrease of the signal.
Compound IC50 values are determined in a hENPP2 (UniProtKB/SwissProt Sequence ref Q13822) biochemical assay using LPC as substrate.
The enzyme is diluted in 50 mM Tris-HCl pH 8.5, 500 mM NaCl, 5 mM KCl, 10 mM CaCl2, 0.1% fatty acid free BSA in a total volume of 10 μL. the reaction is started by the addition of 10 μL of 150 μM LPC (palmitoyl 16:0) diluted in the same buffer as described above and the mixture is incubated at 37° C. for 30 min. The reaction is terminated and choline quantified by the addition of a 25 μL of a mixture containing 0.6 U/mL of choline oxidase, 0.6 U/mL of peroxydase, 1.8 mM TOOS, 1.2 mM amino-antipyrine, 20 mM EGTA (stop-developer solution) diluted in the buffer described above. […] is read on the Envision after an incubation of 30 min at room temperature (Excitation 555 nm, excitation light=70%).

SMILES | IC50
CCc1nc2ccc(C3CCN(C(=O)CN(C)C)CC3)cn2c1N(C)c1nc(-c2ccc(F)cc2)cs1 [Compound 129, 2-(dimethylamino)-1-(4-(2-ethyl-3-((4-(4-fluorophenyl)thiazol-2-yl)(methyl)amino)imidazo[1,2-a]pyridin-6-yl)piperidin-1-yl)ethanone] | 100 to 500 nM
CCc1nc2ccc(C3CCN(C(=O)CCN(C)C)CC3)cn2c1N(C)c1nc(-c2ccc(F)cc2)cs1 [Compound 130, 3-(dimethylamino)-1-(4-(2-ethyl-3-((4-(4-fluorophenyl)thiazol-2-yl)(methyl)amino)imidazo[1,2-a]pyridin-6-yl)piperidin-1-yl)propan-1-one] | 100 to 500 nM
CCc1nc2ccc(C3CCN(C(=O)CN4CC(F)(F)C4)CC3)cn2c1N(C)c1nc(-c2ccc(F)cc2)cs1 [Compound 131] | 100 to 500 nM
CCc1nc2ccc(C3CCN(C(=O)CCNC)CC3)cn2c1N(C)c1nc(-c2ccc(F)cc2)cs1 [Compound 132, 1-(4-(2-ethyl-3-((4-(4-fluorophenyl)thiazol-2-yl)(methyl)amino)imidazo[1,2-a]pyridin-6-yl)piperidin-1-yl)-3-(methylamino)propan-1-one] | > 1000 nM
CCc1nc2ccc(N3CCN(CC(=O)N4CC(CO)C4)CC3)cn2c1N(C)c1nc(-c2ccc(F)cc2)c(C#N)s1 [Compound 139, 2-((2-ethyl-6-(4-(2-(3-(hydroxymethyl)azetidin-1-yl)-2-oxoethyl)piperazin-1-yl)imidazo[1,2-a]pyridin-3-yl)(methyl)amino)-4-(4-fluorophenyl) thiazole-5-carbonitrile] | 0.01 to 100 nM
CCc1nc2ccc(N3CCN(CC(=O)N4CC(CO)C4)CC3)cn2c1N(C)c1nc(-c2ccc(F)cc2)c(CO)s1 [Compound 146, 2-(4-(2-ethyl-3-((4-(4-fluorophenyl)-5-(hydroxymethyl)thiazol-2-yl)(methyl)amino)imidazo[1,2-a]pyridin-6-yl)piperazin-1-yl)-1-(3-(hydroxymethyl)azetidin-1-yl)ethanone] | 500 to 1000 nM
CCc1nc2ccc(C3CCN(S(C)(=O)=O)CC3)cn2c1N(C)c1nc(-c2ccc(OC(F)(F)F)cc2)c(CO)s1 [Compound 148, (2-((2-ethyl-6-(1-(methylsulfonyl)piperidin-4-yl)imidazo [1,2-a]pyridin-3-yl)(methyl)amino)-4-(4-(trifluoromethoxy)phenyl)thiazol-5-yl) methanol] | > 1000 nM
CCc1nc2ccc(C3CCN(S(C)(=O)=O)CC3)cn2c1N(C)c1nc(-c2ccc(C(F)(F)F)cc2)c(CO)s1 [Compound 150, (2-((2-ethyl-6-(1-(methylsulfonyl)piperidin-4-yl)imidazo [1,2-a]pyridin-3-yl)(methyl)amino)-4-(4-(trifluoromethyl)phenyl)thiazol-5-yl) methanol] | 500 to 1000 nM
CCc1nc2ccc(C3CCN(CC(=O)N4CCCC4)CC3)cn2c1N(C)c1nc(-c2ccc(F)cc2)c(CO)s1 [Compound 151, 2-(4-(2-ethyl-3-((4-(4-fluorophenyl)-5-(hydroxymethyl)thiazol-2-yl)(methyl)amino)imidazo[1,2-a]pyridin-6-yl)piperidin-1-yl)-1-(pyrrolidin-1-yl)ethanone] | 500 to 1000 nM
CCc1nc2ccc(C3CCN(CC(=O)N4CC(CO)C4)CC3)cn2c1N(C)c1nc(-c2ccc(F)cc2)c(CO)s1 [Compound 152] | 500 to 1000 nM
CCc1nc2ccc(C3CCN(C(=O)CN(C)C)CC3)cn2c1N(C)c1nc(-c2ccc(F)cc2)c(CO)s1 [Compound 153, 2-(dimethylamino)-1-(4-(2-ethyl-3-((4-(4-fluorophenyl)-5-(hydroxymethyl)thiazol-2-yl)(methyl)amino)imidazo[1,2-a]pyridin-6-yl)piperidin-1-yl) ethanone] | 500 to 1000 nM
CCc1nc2ccc(N3CCNCC3)cn2c1N(C)c1nc(-c2ccc(F)cc2C#N)c(C)s1 [Compound 161, 2-(2-((2-ethyl-6-(piperazin-1-yl)imidazo[1,2-a]pyridin-3-yl)(methyl)amino)-5-methylthiazol-4-yl)-5-fluorobenzonitrile] | > 1000 nM
CCc1nc2ccc(N3CCN(CC(=O)NC)CC3)cn2c1N(C)c1nc(-c2ccc(F)cc2C#N)c(C)s1 [Compound 163, 2-(4-(3-((4-(2-cyano-4-fluorophenyl)-5-methylthiazol-2-yl)(methyl)amino)-2-ethylimidazo[1,2-a]pyridin-6-yl)piperazin-1-yl)-N-methylacetamide] | 500 to 1000 nM
CCc1nc2ccc(N3CCN(CC(=O)N4CC(F)C4)CC3)cn2c1N(C)c1nc(-c2ccc(F)cc2C#N)cs1 [Compound 164, 2-(2-((2-ethyl-6-(4-(2-(3-fluoroazetidin-1-yl)-2-oxoethyl)piperazin-1-yl)imidazo[1,2-a]pyridin-3-yl)(methyl)amino)thiazol-4-yl)-5-fluorobenzonitrile] | 0.01 to 100 nM
CCc1nc2ccc(N3CCN(CC(=O)N4CC(F)(F)C4)CC3)cn2c1N(C)c1nc(-c2ccc(F)cc2C#N)cs1 [Compound 165, 2-(2-((6-(4-(2-(3,3-difluoroazetidin-1-yl)-2-oxoethyl)piperazin-1-yl)-2-ethylimidazo[1,2-a]pyridin-3-yl)(methyl)amino)thiazol-4-yl)-5-fluorobenzonitrile] | 100 to 500 nM
CCc1nc2ccc(N3CCN(CC(=O)NC)CC3)cn2c1N(C)c1nc(-c2ccc(F)cc2C#N)cs1 [Compound 169, 2-(4-(3-((4-(2-cyano-4-fluorophenyl)thiazol-2-yl)(methyl)amino)-2-ethylimidazo[1,2-a]pyridin-6-yl)piperazin-1-yl)-N-methylacetamide] | 0.01 to 100 nM
CN(C)C(=O)CN1CCC(c2ccc3nc(CCC(N)=O)c(N(C)c4nc(-c5ccc(F)cc5)cs4)n3c2)CC1 [Compound 176, 3-(6-(1-(2-(dimethylamino)-2-oxoethyl)piperidin-4-yl)-3-((4-(4-fluorophenyl)thiazol-2-yl)(methyl)amino)imidazo[1,2-a]pyridin-2-yl)propanamide] | > 1000 nM
CCc1nc2ccc(N3CC(N)C3)cn2c1N(C)c1nc(-c2ccc(F)cc2)cs1 [Compound 177, [6-(3-Amino-azetidin-1-yl)-2-ethyl-imidazo[1,2-a]pyridin-3-yl]-[4-(4-fluoro-phenyl)-thiazol-2-yl]-methyl-amine] | 500 to 1000 nM
CCc1nc2ccc(N3CC(NCC(=O)N4CC(O)C4)C3)cn2c1N(C)c1nc(-c2ccc(F)cc2)cs1 [Compound 178, 2-(1-(2-ethyl-3-((4-(4-fluorophenyl)thiazol-2-yl)(methyl)amino)imidazo[1,2-a]pyridin-6-yl)azetidin-3-ylamino)-1-(3-hydroxyazetidin-1-yl)ethanone] | 100 to 500 nM
CCc1nc2ccc(C3=CCN(CC(=O)N(C)C)CC3)cn2c1N(C)c1nc(-c2ccc(F)cc2)ns1 [Compound 190, 2-(4-(2-ethyl-3-((3-(4-fluorophenyl)-1,2,4-thiadiazol-5-yl)(methyl)amino)imidazo[1,2-a]pyridin-6-yl)-5,6-dihydropyridin-1(2H)-yl)-N,N-dimethylacetamide] | > 1000 nM
CCc1nc2ccc(C3=CCN(S(C)(=O)=O)CC3)cn2c1N(C)c1nc(-c2ccc(C(F)(F)F)cc2)cs1 [Compound 193, N-(2-ethyl-6-(1-(methylsulfonyl)-1,2,3,6-tetrahydropyridin-4-yl)imidazo[1,2-a]pyridin-3-yl)-N-methyl-4-(4-(trifluoromethyl)phenyl) thiazol-2-amine] | > 1000 nM
CCc1nc2ccc(C3CCN(CC4CN(C)C(=O)O4)CC3)cn2c1N(C)c1nc(-c2ccc(F)cc2)cs1 (centres unmarked) [Compound 195, 5-((4-(2-ethyl-3-((4-(4-fluorophenyl)thiazol-2-yl)(methyl)amino)imidazo[1,2-a]pyridin-6-yl)piperidin-1-yl)methyl)-3-methyloxazolidin-2-one] | > 1000 nM
CCc1nc2ccc(C3CCN(C[C@H]4CNC(=O)O4)CC3)cn2c1N(C)c1nc(-c2ccc(F)cc2)cs1 [Compound 196, (R)-5-((4-(2-ethyl-3-((4-(4-fluorophenyl)thiazol-2-yl)(methyl)amino)imidazo[1,2-a]pyridin-6-yl)piperidin-1-yl)methyl)oxazolidin-2-one] | > 1000 nM
CCc1nc2ccc(C3CCN(C[C@@H]4CNC(=O)O4)CC3)cn2c1N(C)c1nc(-c2ccc(F)cc2)cs1 [Compound 197, (S)-5-((4-(2-ethyl-3-((4-(4-fluorophenyl)thiazol-2-yl)(methyl)amino)imidazo[1,2-a]pyridin-6-yl)piperidin-1-yl)methyl)oxazolidin-2-one] | > 1000 nM
CCc1nc2ccc(C3CCN(CC4COC(=O)N4)CC3)cn2c1N(C)c1nc(-c2ccc(F)cc2)cs1 (centres unmarked) [Compound 198, 4-((4-(2-ethyl-3-((4-(4-fluorophenyl)thiazol-2-yl)(methyl)amino)imidazo[1,2-a]pyridin-6-yl)piperidin-1-yl)methyl)oxazolidin-2-one] | > 1000 nM
CCc1nc2ccc(N3CCN(C(=O)C4(N)CC4)CC3)cn2c1N(C)c1nc(-c2ccc(F)cc2)cs1 [Compound 202, (1-aminocyclopropyl)(4-(2-ethyl-3-((4-(4-fluorophenyl)thiazol-2-yl)(methyl)amino)imidazo[1,2-a]pyridin-6-yl)piperazin-1-yl)methanone] | > 1000 nM
